# Measurements: US20060094676A1, “Compositions and methods for treating cancer using compositions comprising an inhibitor of endothelin receptor activity” (priority 2004, published 2006)
# Non-standard residues stand in square brackets, D forms with d. Residues, ends and D or L forms follow the SMILES beside them.
# Tested on: VEGF
# Assay: Real-time RT-PCR of VEGF transcripts
# Assay type: cell-based, human
# Details: BQ123 in combination with BQ788; melanoma cell lines of the study; data not shown
# Method: Equal amounts of RNA from cells that were treated with BQ788 for 3 days were subjected to real-time RT-PCR analysis for the detection VEGF (A), HIF-1α (B) and Gravin (C) transcripts. Differences in expression levels are shown as x fold change and are statistically significant (p<0.05) unless a column in marked as non significant (N.S.). Sections of two representative tumors derived from a human melanoma cell line grown in nude mice and injected either with vehicle (D) or BQ788 (E) were stained with anti CD-31 to highlight blood vessels (brown staining, Lahav et al, 1999).
# RNA was prepared from the different cell lines in different culture conditions using SV total RNA isolation kit (Promega) according to the manufacturer's protocol. For each sample RNA concentration was determined using the total RNA nano procedure of an Agilent bioanalyzer. A stock of SK-MEL-28 RNA aliquots was prepared containing 10, 20, 50, 100, 200, 500 and 1000 ng/12 μl for use as a standard curve and kept in −80° C. For the experimental unknown samples, a stock of 100 ng/12 μl RNA aliquots from each cell line and condition was prepared and stored at −80° C. For each real-time experiment one series of standard curve and unknown experimental series of aliquots was put on ice for use. Complementary DNA was prepared by adding to each tube 0.5 μl of random hexamers (Promega) and 1 μl of 10 mM dNTP mix (Promega) and incubating at 65° C. for 5 min. 4 μl of 5× M-MLV buffer (Promega), 1 μl of the RNase inhibitor RNasin (Promega) and 1 μl of M-MLV RT RNase H (Promega) were then added and the solution was incubated at 42° C. for 50 min followed by 15 min at 70° C. For real time reactions 15 μl of each cDNA sample were transferred to 3 wells in a 386 well plate. To each well we added 10 μl of TaqMan universal PCR master mix (Applied Biosystems), 1 μl of primers+probe mix (Assays-on-Demand from Applied Biosystems: EDNRB Hs00240747, BCL-2A1 Hs00187845, PARP-3 Hs00154151, VEGF Hs00173626, HIF-1α Hs00153153 and Gravin Hs00374507) and 4 μl of nuclease free water (Promega). Wells containing water instead of cDNA served as negative controls. The samples were subjected to 40 cycles of 15 sec at 95° C. and 1 min at 60° C. A standard curve of Ct versus RNA quantity was established and accordingly the Ct in the unknown samples was correlated to quantity of transcript.
# Real-time PCR analysis confirmed that VEGF expression levels increased 18-fold in BQ788 treated LN-met cells and 65-fold in SK-MEL-28 cells, compared to only 2-fold in primary melanoma, and no change in the Cut-met line (FIG. 5). The changes in VEGF expression levels can be explained, at least in part, by changes in the expression levels of its known regulator hypoxia inducible factor-1 oc (HIF-1α) (Maxwell, et al., Oxygen sensors and angiogenesis, Semin. Cell Dev. Biol., 13:29-37 (2002)). […]
compound,measurement,value
CC(C)C[C@@H]1NC(=O)[C@@H](C(C)C)NC(=O)[C@@H]2CCCN2C(=O)[C@@H](CC(=O)O)NC(=O)[C@@H](Cc2c[nH]c3ccccc23)NC1=O [BQ123] (cyclo(L[dW][dD]P[dV])),VEGF RNA levels compared to BQ788 alone,did not result in changes
